Laboratory results as given in ChEMBL document CHEMBL1201862, “PubChem BioAssay data set” (2004).
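Where inhibition never reached the appropriate level, the endpoint shown equals the highest concentration tested. Otherwise, values were interpolated linearly from a five-concentration, 48-hour dose response in 96-well plates. GI50: concentration for 50% inhibition of growth.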 Calls of active or inactive are those of the source. Cut-off read from the data, not from the text of the source: active = GI50 up to about 1.1 µM and inactive = higher.

Tests used:
Experiment in all cases: growth of human tumour cells (NCI), 48 h
786-0 = tested on: 786-0
A498 = tested on: A498
A549 = tested on: A549
ACHN = tested on: ACHN
CAKI-1 = tested on: CAKI-1
CCRF-CEM = tested on: CCRF-CEM
COLO 205 = tested on: COLO 205
DLD-1 = tested on: DLD-1
DMS-114 = tested on: DMS-114
DMS-273 = tested on: DMS-273
EKVX = tested on: EKVX
HCC 2998 = tested on: HCC 2998
HCT-116 = tested on: HCT-116
HCT-15 = tested on: HCT-15
HL-60 = tested on: HL-60
HOP-18 = tested on: HOP-18
HOP-62 = tested on: HOP-62
HOP-92 = tested on: HOP-92
HT-29 = tested on: HT-29
IGROV-1 = tested on: IGROV-1
K562 = tested on: K562
KM-20L2 = tested on: KM-20L2
KM12 = tested on: KM12
LOX IMVI = tested on: LOX IMVI
LXFL 529 = tested on: LXFL 529
M14 = tested on: M14
M19-MEL = tested on: M19-MEL
MOLT-4 = tested on: MOLT-4
Malme-3M = tested on: Malme-3M
NCI-H226 = tested on: NCI-H226
NCI-H23 = tested on: NCI-H23
NCI-H460 = tested on: NCI-H460
NCI-H522 = tested on: NCI-H522
OVCAR-3 = tested on: OVCAR-3
OVCAR-4 = tested on: OVCAR-4
OVCAR-5 = tested on: OVCAR-5
OVCAR-8 = tested on: OVCAR-8
RPMI-8226 = tested on: RPMI-8226
RXF 393 = tested on: RXF 393
SF-268 = tested on: SF-268
SF-295 = tested on: SF-295
SF-539 = tested on: SF-539
SK-MEL-28 = tested on: SK-MEL-28
SK-MEL-2 = tested on: SK-MEL-2
SK-MEL-5 = tested on: SK-MEL-5
SK-OV-3 = tested on: SK-OV-3
SN12C = tested on: SN12C
SNB-19 = tested on: SNB-19
SNB-75 = tested on: SNB-75
SNB-78 = tested on: SNB-78
SR = tested on: SR
SW-620 = tested on: SW-620
TK-10 = tested on: TK-10
U-251 = tested on: U-251
UACC-257 = tested on: UACC-257
UACC-62 = tested on: UACC-62
UO-31 = tested on: UO-31
XF498 = tested on: XF498
RXF 631 = tested on: RXF 631

Measured: GI50

COC1=C(C)C(=O)c2c(cc3c(c2O)C(C)(CCC=C(C)C)C(C)O3)C1=O (stereo unspecified)
inactive: 786-0 > 100 µM | A498 16.3 µM | A549 20 µM | ACHN > 100 µM | CAKI-1 > 100 µM | CCRF-CEM > 100 µM | COLO 205 > 100 µM | DLD-1 > 100 µM | DMS-114 > 100 µM | DMS-273 > 57.1 µM | EKVX > 100 µM | HCC 2998 42.1 µM | HCT-116 > 100 µM | HL-60 > 100 µM | HOP-18 > 48.2 µM | HOP-62 18.2 µM | HOP-92 > 100 µM | HT-29 37 µM | IGROV-1 > 100 µM | K562 > 54.8 µM | KM-20L2 > 100 µM | KM12 > 55.7 µM | LOX IMVI 18.2 µM | LXFL 529 > 100 µM | M14 23.4 µM | M19-MEL 10.1 µM | MOLT-4 > 100 µM | Malme-3M > 76.4 µM | NCI-H226 17.6 µM | NCI-H23 9.71 µM | NCI-H460 14.1 µM | NCI-H522 > 100 µM | OVCAR-3 > 100 µM | OVCAR-4 > 100 µM | OVCAR-5 > 100 µM | OVCAR-8 > 100 µM | RPMI-8226 > 100 µM | RXF 393 > 100 µM | SF-268 > 100 µM | SF-295 20.3 µM | SF-539 > 100 µM | SK-MEL-28 > 100 µM | SK-MEL-2 30.2 µM | SK-MEL-5 13.4 µM | SK-OV-3 > 100 µM | SN12C 33.5 µM | SNB-19 19.2 µM | SNB-75 19.9 µM | SNB-78 > 100 µM | SR > 85.7 µM | SW-620 > 100 µM | TK-10 > 100 µM | U-251 > 44.6 µM | UACC-257 > 72.9 µM | UACC-62 22.3 µM | UO-31 > 100 µM | XF498 > 100 µM
27.4 µM: HCT-15

CC1(C)C2CCC13C(=O)C1OC3(C2)C2C(=O)N(c3ccccc3)C(=O)C12 (stereo unspecified)
inactive: 786-0 > 100 µM | A498 > 100 µM | A549 > 100 µM | ACHN > 100 µM | CAKI-1 > 100 µM | CCRF-CEM > 100 µM | COLO 205 > 100 µM | DMS-114 > 100 µM | DMS-273 > 100 µM | EKVX > 100 µM | HCC 2998 > 100 µM | HCT-116 > 100 µM | HL-60 > 100 µM | HOP-18 > 100 µM | HOP-62 > 100 µM | HT-29 51.4 µM | IGROV-1 > 100 µM | K562 > 100 µM | KM-20L2 > 100 µM | KM12 > 100 µM | LOX IMVI > 100 µM | LXFL 529 > 100 µM | M14 > 100 µM | MOLT-4 > 100 µM | Malme-3M > 100 µM | NCI-H226 > 100 µM | NCI-H23 38.1 µM | NCI-H460 > 100 µM | NCI-H522 20.1 µM | OVCAR-3 > 100 µM | OVCAR-4 > 100 µM | OVCAR-5 > 100 µM | OVCAR-8 > 100 µM | RPMI-8226 > 100 µM | RXF 393 > 100 µM | RXF 631 > 100 µM | SF-268 > 100 µM | SF-295 > 100 µM | SF-539 > 100 µM | SK-MEL-2 > 100 µM | SK-MEL-5 > 100 µM | SK-OV-3 > 100 µM | SN12C > 100 µM | SNB-19 > 100 µM | SNB-75 > 100 µM | SNB-78 > 100 µM | SW-620 > 100 µM | TK-10 > 100 µM | U-251 > 100 µM | UACC-257 > 100 µM | UACC-62 > 100 µM | UO-31 > 100 µM
> 100 µM: HCT-15
